Tests used:
Experiment in all cases: Kinase selectivity, DiscoverX scanMAX Kinase assay panel (% control)
Assay type in all cases: binding
[1] = target: T1, kinases of the scanMAX Kinase assay panel (Homo sapiens, UniProt O43318); conditions: kinase TAK1; 1 uM in DMSO
T1 construct: purchased DiscoverX Co. (contract measurement) scanMAX Kinase assay panel
T1 sequence (O43318 1-606): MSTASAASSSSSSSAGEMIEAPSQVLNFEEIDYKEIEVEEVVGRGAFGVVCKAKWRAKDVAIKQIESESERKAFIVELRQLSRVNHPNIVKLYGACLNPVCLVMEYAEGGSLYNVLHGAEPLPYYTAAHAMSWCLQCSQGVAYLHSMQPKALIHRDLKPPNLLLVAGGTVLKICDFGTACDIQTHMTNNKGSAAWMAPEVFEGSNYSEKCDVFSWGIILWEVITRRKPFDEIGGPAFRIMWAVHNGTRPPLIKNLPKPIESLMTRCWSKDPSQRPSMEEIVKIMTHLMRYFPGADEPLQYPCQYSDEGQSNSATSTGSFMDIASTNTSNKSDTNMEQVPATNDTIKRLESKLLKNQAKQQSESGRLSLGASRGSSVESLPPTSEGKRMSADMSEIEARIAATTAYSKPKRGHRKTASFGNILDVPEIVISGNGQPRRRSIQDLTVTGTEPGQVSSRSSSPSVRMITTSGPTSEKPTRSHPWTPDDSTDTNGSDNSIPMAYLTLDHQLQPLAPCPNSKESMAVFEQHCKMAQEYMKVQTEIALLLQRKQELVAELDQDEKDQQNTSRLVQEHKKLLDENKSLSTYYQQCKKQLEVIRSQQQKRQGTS
In short: (§1)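 Each enzyme is treated with drug at 1 uM in DMSO, then signal is scaled between a positive control (0%) and DMSO (100%) to give % control. Kinases with % control under 35% are scored as inhibited.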

[2] = target: T2, kinases of the scanMAX Kinase assay panel (Homo sapiens, UniProt P08922); conditions: kinase ROS1; 1 uM in DMSO
T2 construct: purchased DiscoverX Co. (contract measurement) scanMAX Kinase assay panel
In short: as §1

[3] = target: T3, kinases of the scanMAX Kinase assay panel (Homo sapiens, UniProt P17612); conditions: PKAC-alpha; 1 uM
T3 construct: purchased DiscoverX Co. (contract measurement) scanMAX Kinase assay panel
In short: as §1

[4] = target: T4, kinases of the scanMAX Kinase assay panel (Homo sapiens, UniProt P22607); conditions: FGFR3; 1 uM
T4 construct: purchased DiscoverX Co. (contract measurement) scanMAX Kinase assay panel
In short: as §1

[5] = target: T5, kinases of the scanMAX Kinase assay panel (Homo sapiens, UniProt P37023); conditions: ACVRL1; 1 uM
T5 construct: purchased DiscoverX Co. (contract measurement) scanMAX Kinase assay panel
In short: as §1

[6] = target: T6, kinases of the scanMAX Kinase assay panel (Homo sapiens, UniProt Q8NFD2); conditions: ANKK1; 1 uM
T6 construct: purchased DiscoverX Co. (contract measurement) scanMAX Kinase assay panel
T6 sequence (Q8NFD2 1-765): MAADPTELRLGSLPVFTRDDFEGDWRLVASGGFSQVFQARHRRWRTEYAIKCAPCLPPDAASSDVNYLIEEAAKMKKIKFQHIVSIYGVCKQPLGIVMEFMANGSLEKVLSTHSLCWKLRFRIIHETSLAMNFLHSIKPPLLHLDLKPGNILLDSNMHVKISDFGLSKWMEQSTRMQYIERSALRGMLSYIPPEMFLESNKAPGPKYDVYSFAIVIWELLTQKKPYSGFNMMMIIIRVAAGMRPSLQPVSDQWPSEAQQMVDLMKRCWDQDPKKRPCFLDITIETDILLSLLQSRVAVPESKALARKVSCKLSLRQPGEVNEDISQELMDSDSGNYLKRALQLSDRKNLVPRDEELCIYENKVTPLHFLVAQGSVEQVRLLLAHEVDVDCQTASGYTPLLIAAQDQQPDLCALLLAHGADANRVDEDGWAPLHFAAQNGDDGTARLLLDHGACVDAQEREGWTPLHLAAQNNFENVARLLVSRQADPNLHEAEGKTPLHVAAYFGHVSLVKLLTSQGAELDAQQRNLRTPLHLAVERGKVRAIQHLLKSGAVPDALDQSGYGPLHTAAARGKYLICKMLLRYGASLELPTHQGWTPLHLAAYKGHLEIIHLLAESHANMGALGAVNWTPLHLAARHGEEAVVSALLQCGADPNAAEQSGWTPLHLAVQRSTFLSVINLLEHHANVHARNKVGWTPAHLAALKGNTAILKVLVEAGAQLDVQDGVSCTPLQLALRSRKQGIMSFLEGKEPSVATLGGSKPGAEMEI
In short: as §1

[7] = target: T7, kinases of the scanMAX Kinase assay panel (Homo sapiens, UniProt Q9H2G2); conditions: kinase SLK; 1 uM in DMSO
T7 construct: purchased DiscoverX Co. (contract measurement) scanMAX Kinase assay panel
In short: as §1

[8] = target: T8, kinases of the scanMAX Kinase assay panel (Homo sapiens, UniProt Q9HAZ1); conditions: CLK4; 1 uM
T8 construct: purchased DiscoverX Co. (contract measurement) scanMAX Kinase assay panel
In short: as §1

T4 sequence (P22607 23-806): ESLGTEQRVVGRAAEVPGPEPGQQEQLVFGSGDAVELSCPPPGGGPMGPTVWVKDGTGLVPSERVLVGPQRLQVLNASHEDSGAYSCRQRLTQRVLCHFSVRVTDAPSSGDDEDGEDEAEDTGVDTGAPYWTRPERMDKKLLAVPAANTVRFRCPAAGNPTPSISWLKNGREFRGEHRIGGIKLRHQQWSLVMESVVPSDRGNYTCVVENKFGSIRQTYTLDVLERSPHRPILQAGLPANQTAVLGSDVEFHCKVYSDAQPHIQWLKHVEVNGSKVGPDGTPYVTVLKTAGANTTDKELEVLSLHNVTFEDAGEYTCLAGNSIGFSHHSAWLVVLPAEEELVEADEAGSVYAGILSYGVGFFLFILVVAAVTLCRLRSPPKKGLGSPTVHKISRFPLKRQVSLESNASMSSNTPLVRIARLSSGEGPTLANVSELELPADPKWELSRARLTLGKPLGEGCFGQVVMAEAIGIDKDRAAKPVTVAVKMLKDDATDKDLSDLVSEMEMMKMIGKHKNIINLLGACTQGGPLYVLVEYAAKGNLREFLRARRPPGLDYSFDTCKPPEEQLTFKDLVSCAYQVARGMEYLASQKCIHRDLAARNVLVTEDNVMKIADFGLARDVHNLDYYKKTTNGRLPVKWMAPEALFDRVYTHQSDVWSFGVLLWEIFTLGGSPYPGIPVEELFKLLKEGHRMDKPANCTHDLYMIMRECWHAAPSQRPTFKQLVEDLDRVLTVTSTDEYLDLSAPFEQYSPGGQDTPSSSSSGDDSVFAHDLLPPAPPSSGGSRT
T2 sequence (P08922 28-2347): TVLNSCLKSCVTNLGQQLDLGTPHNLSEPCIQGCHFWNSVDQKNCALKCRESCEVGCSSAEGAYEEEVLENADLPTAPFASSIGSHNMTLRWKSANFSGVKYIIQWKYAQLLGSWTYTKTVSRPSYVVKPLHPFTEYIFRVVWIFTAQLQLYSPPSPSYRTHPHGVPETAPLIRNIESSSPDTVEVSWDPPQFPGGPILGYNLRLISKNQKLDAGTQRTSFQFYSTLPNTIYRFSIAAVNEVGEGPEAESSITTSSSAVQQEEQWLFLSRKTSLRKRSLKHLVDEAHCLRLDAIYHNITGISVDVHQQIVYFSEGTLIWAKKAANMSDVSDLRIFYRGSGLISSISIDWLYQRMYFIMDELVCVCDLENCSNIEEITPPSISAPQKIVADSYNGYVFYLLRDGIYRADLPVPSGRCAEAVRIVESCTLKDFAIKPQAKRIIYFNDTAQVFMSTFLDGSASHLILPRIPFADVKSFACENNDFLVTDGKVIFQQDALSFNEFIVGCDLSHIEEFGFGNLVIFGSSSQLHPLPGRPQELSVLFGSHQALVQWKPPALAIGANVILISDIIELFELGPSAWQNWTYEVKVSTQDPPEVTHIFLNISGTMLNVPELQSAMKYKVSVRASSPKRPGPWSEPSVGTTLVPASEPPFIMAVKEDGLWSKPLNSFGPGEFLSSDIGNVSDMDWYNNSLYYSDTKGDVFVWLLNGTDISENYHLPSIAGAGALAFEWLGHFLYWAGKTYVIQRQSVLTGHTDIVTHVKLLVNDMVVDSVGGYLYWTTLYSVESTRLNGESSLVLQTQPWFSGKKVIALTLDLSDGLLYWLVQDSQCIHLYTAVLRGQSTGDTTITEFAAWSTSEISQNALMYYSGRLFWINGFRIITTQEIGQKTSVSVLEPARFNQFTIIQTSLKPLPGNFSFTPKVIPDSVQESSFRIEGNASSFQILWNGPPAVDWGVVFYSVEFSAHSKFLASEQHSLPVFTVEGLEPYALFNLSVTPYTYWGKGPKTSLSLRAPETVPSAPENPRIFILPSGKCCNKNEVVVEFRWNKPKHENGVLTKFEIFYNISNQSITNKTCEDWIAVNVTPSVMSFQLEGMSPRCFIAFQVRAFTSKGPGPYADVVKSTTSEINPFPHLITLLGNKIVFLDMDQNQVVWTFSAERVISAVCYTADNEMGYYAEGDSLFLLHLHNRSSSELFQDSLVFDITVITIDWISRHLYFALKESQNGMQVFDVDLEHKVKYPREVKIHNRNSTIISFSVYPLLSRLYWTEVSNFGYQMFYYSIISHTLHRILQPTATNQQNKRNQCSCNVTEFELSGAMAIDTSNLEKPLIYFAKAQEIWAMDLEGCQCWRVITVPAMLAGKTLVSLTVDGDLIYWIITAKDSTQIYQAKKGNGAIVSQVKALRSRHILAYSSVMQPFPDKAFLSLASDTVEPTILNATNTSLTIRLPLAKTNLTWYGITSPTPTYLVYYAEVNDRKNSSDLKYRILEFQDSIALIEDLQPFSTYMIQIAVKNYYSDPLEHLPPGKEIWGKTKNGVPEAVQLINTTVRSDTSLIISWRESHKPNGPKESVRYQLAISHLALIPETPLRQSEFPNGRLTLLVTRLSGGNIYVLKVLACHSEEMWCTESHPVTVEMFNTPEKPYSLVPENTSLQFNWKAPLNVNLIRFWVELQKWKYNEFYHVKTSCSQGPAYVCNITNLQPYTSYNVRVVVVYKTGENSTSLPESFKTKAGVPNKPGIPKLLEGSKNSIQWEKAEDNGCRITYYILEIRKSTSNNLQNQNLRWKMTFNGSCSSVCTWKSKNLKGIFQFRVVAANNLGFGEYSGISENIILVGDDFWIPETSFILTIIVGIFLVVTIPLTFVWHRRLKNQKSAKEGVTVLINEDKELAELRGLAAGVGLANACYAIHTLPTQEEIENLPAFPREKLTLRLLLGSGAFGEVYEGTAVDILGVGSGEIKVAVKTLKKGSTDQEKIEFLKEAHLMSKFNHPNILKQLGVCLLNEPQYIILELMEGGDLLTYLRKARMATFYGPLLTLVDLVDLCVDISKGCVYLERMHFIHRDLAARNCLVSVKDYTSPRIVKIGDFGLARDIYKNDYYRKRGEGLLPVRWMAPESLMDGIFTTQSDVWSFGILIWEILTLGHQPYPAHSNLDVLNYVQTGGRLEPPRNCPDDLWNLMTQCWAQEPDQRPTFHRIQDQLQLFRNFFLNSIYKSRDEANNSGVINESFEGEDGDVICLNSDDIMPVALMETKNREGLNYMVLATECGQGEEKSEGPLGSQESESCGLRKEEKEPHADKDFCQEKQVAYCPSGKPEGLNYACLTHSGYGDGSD
T8 sequence (Q9HAZ1 whole entry): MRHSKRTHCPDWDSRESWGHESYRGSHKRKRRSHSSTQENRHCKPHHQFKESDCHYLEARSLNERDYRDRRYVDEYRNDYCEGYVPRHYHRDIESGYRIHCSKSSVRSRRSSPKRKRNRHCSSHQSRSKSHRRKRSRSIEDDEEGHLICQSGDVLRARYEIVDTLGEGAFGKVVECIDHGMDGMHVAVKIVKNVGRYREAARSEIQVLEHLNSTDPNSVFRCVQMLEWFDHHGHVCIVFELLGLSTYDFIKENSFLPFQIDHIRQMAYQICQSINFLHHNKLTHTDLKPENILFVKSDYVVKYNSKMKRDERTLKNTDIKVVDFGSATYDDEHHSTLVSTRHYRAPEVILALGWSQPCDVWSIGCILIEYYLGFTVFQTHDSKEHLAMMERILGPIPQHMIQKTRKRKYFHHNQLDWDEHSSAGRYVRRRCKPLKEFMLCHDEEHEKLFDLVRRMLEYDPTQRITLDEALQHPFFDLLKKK
T5 sequence (P37023 22-503): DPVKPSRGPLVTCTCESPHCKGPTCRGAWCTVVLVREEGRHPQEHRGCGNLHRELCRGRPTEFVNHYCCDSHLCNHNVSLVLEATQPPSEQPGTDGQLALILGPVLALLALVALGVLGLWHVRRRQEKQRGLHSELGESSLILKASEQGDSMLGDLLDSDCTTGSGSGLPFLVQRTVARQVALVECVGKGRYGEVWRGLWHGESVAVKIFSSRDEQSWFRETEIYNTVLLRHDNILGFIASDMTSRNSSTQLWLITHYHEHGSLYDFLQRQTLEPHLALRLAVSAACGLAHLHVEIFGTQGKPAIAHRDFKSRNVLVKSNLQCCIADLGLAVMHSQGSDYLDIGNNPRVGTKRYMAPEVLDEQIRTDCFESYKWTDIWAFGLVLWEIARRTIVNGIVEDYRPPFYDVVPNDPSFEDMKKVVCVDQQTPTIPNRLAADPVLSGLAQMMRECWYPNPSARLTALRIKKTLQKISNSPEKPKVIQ

Row | Structure (SMILES) | remaining binding at 1 µM [1] | remaining binding at 1 µM [2] | remaining binding at 1 µM [3] | remaining binding at 1 µM [4] | remaining binding at 1 µM [5] | remaining binding at 1 µM [6] | remaining binding at 1 µM [7] | remaining binding at 1 µM [8]
1 | CCNc1nc(Nc2ccc(C(=O)N3CCC(N4CCOCC4)CC3)cc2OC)nc2[nH]cc(C(F)(F)F)c12 [Example 104, (4-((4-(ethylamino)-5-(trifluoromethyl)-7H-pyrrolo[2,3-d]pyrimidine-2-yl)amino)-3-methoxyphenyl)(4-morpholinopiperidine-1-yl)methanone] | 100% | 22% | 100% | 100% | 97% | 95% | 97% | 4.1%
2 | CNc1nc(Nc2ccc(C(=O)N3CCOCC3)cc2OC)nc2[nH]cc(C#N)c12 [Example 1, 2-((2-methoxy-4-(morpholine-4-carbonyl)phenyl)amino)-4-(methylamino)-7H-pyrrolo[2,3-d]pyrimidine-5-carbonitrile] | 52% | 56% | 100% | 100% | 88% | 82% | 100% | 3.4%
3 | CC1(Nc2nc(Nc3cnn([C@H]4CCN(C5COC5)C[C@@H]4F)c3Cl)nc3[nH]cc(C#N)c23)CC1 [Example 52, 2-((5-chloro-1-((3S,4S)-3-fluoro-1-(oxetane-3-yl)piperidine-4-yl)-1H-pyrazole-4-yl)amino)((1-methylcyclopropyl)amino)-7H-pyrrolo[2,3-d]pyrimidine-5-carbonitrile] | 0.05% | 23% | 100% | 9.8% | 100% | 15% | 13% | 1.4%

Reference: US11208412B2 (DAEGU-GYEONGBUK MEDICAL INNOVATION FOUNDATION, priority 2017, dated 2021)
